A short description of series [1]: Acute toxicity, intravenous, mice. Type of series: in vivo. The conditions noted are these: mouse, in vivo; intravenous, within 24 hours; read-out: Evaluated LD50-range.
The subject of series [2] is female NMRI-albino mice. Kind of series: Acute toxicity, intravenous, mice. The series is classed as in vivo. Particulars: within 24 hours.
Series [3] deals with mongrel cats. Kind of series: Inotropic and heart-circulatory effectiveness on narcotised cats, intravenous. The series is classed as in vivo, cat. Particulars: 6 animals; for blood pressure before / dp/dt (inotropism) before / heart frequency before: before administration.
Series [4] concerns narcotised guinea pigs. The series is described as follows: Blood pressure experiments on guinea pigs, i.v. The series is classed as in vivo, guinea pig.

By LD50 is commonly meant the dose expected to kill half of the subjects tested. As to `N[C@H]1CO[C@H]2[C@@H]1OC[C@@H]2O[N+](=O)[O-]` [1 c], the LD50 at 24 h in series [1] was above 200 mg/kg. Moreover, the Frequency of death in series [2] (200 mg/kg i.v.) is on record as 0/3.

In the case of `CN(CCCCc1ccccc1)[C@H]1CO[C@H]2[C@@H]1OC[C@@H]2O[N+](=O)[O-]` [Example 22, 5-[N-(4-Phenylbutyl)-N-methylamino]-5-desoxy-1.4;3.6-dianhydro-L-iditol 2-nitrate], in series [1], the LD50 at 24 h is at least 50 mg/kg. Besides, the Frequency of death in series [2] (50 mg/kg i.v.) was 1/3; in series [2] (100 mg/kg i.v.) it was 3/3; in series [2] (200 mg/kg i.v.), 6/6.

With `O=[N+]([O-])O[C@H]1CO[C@H]2[C@@H]1OC[C@@H]2NCCCCCc1ccccc1` [Example 30, 5-(5-Phenylpentylamino)-5-desoxy-1.4;3.6-dianhydro-L-iditol 2-nitrate], in series [3] (0.25 mg/kg i.v.), the blood pressure before was determined as 105.7 mm.Hg, the “dp/dt (inotropism) before” value was determined as 9600 mm.Hg/sec, the heart frequency before came to 199.7 min⁻¹ and the “blood pressure WD” value is listed as 9.2 min. Also, in series [3] (0.25 mg/kg i.v.), the blood pressure after turned out to be 88.2 mm.Hg, the “blood pressure Δ” value is listed as -17.5 mm.Hg, the “dp/dt (inotropism) after” value came out at 8340 mm.Hg/sec and the “dp/dt (inotropism) Δ” value is given as -1260 mm.Hg/sec. In addition, in series [3] (0.25 mg/kg i.v.), the “dp/dt WD” value is recorded as 10.2 min, the heart frequency after was 198.0 min⁻¹ and the “heart frequency Δ” value was -1.7 min⁻¹. In series [3] (0.50 mg/kg i.v.), the “blood pressure WD” value came to 11.2 min, the blood pressure after turned out to be 81.8 mm.Hg, the “blood pressure Δ” value was -25.0 mm.Hg and the “dp/dt (inotropism) after” value was found to be 7540 mm.Hg/sec. Besides, in series [3] (0.50 mg/kg i.v.), the “dp/dt (inotropism) Δ” value is -1820 mm.Hg/sec, the “dp/dt WD” value stood at 13.7 min, the heart frequency after was found to be 200.3 min⁻¹ and the “heart frequency Δ” value is -0.7 min⁻¹. Besides, in series [3] (1.00 mg/kg i.v.), the “blood pressure WD” value is 22.2 min, the blood pressure after was 73.3 mm.Hg, the “blood pressure Δ” value is given as -33.0 mm.Hg and the “dp/dt (inotropism) after” value was determined as 6160 mm.Hg/sec. For the same molecule, in series [3] (1.00 mg/kg i.v.), the “dp/dt (inotropism) Δ” value was -2180 mm.Hg/sec, the “dp/dt WD” value is listed as 23.6 min, the heart frequency after worked out at 196.0 min⁻¹ and the “heart frequency Δ” value is -2.3 min⁻¹. For the same molecule, in series [3] (2.50 mg/kg i.v.), the “blood pressure WD” value is above 10 min, the blood pressure after came to 60.3 mm.Hg, the “blood pressure Δ” value is on record as -45.8 mm.Hg and the “dp/dt (inotropism) after” value worked out at 5840 mm.Hg/sec. For the same molecule, in series [3] (2.50 mg/kg i.v.), the “dp/dt (inotropism) Δ” value is listed as -2060 mm.Hg/sec, the “dp/dt WD” value is given as above 10 min, the heart frequency after turned out to be 188.3 min⁻¹ and the “heart frequency Δ” value is -2.0 min⁻¹.

Regarding `COc1ccc(CCCCN[C@H]2CO[C@H]3[C@@H]2OC[C@@H]3O[N+](=O)[O-])cc1` [Example 32, 5-[4-(4-Methoxyphenyl)-butylamino]-5-desoxy-1.4;3.6-dianhydro-L-iditol 2-nitrate], the LD50 at 24 h in series [1] was in the range of 50 to 100 mg/kg. Also, the Frequency of death was 1/10 in series [2] (50 mg/kg i.v.) and 10/10 in series [2] (100 mg/kg i.v.).

In the case of `O=[N+]([O-])O[C@H]1CO[C@H]2[C@@H]1OC[C@@H]2NCCCCOc1ccccc1` [Example 37, 5-(4-Phenoxybutylamino)-5-desoxy-1.4;3.6-dianhydro-L-iditol 2-nitrate], in series [1], the LD50 at 24 h is at least 50 mg/kg. The Frequency of death in series [2] (50 mg/kg i.v.) is given as 3/10; in series [2] (100 mg/kg i.v.), 10/10; in series [2] (200 mg/kg i.v.), 3/3.

On to `O=[N+]([O-])O[C@@H]1CO[C@H]2[C@@H]1OC[C@@H]2NCCCOc1ccccc1` [Example 42, 2-(3-Phenoxypropylamino)-2-desoxy-1.4;3.6-dianhydro-D-glucitol 5-nitrate], for which the 50% lethal dose (LD50) at 24 h in series [1] was in the range of 50 to 100 mg/kg. Besides, the results for the Frequency of death in series [2] (50 mg/kg i.v.), in series [2] (100 mg/kg i.v.) and in series [2] (200 mg/kg i.v.) were 0/3, 2/3 and 6/6, respectively.

As to `O=[N+]([O-])O[C@@H]1CO[C@H]2[C@@H]1OC[C@@H]2NCCCCc1ccccc1` [Example 43, 2-(4-phenylbutylamino)-2-desoxy-1.4;3.6-dianhydro-D-glucitol 5-nitrate], the LD50 at 24 h in series [1] is at least 50 mg/kg. In addition, the values for the Frequency of death in series [2] (50 mg/kg i.v.), in series [2] (100 mg/kg i.v.) and in series [2] (200 mg/kg i.v.) were 1/3, 3/3 and 6/6, respectively.

On to `COc1ccc(OCC(O)CN[C@H]2CO[C@H]3[C@@H]2OC[C@@H]3O[N+](=O)[O-])cc1` (stereo partly drawn) [Example 44, 5-[2-Hydroxy-3-(4-methoxyphenoxy)-propylamino]-5-desoxy-1.4;3.6-dianhydro-L-iditol 2-nitrate], for which the LD50 at 24 h in series [1] lay in the range of 100 to 200 mg/kg. For the same molecule, the Frequency of death in series [2] (100 mg/kg i.v.) is on record as 0/3; in series [2] (200 mg/kg i.v.), 2/3.

Regarding `CCOc1ccccc1OCC(O)CN[C@H]1CO[C@H]2[C@@H]1OC[C@@H]2O[N+](=O)[O-]` (stereo partly drawn) [Example 47, 5-[2-Hydroxy-3-(2-ethoxyphenoxy)-propylamino]-5-desoxy-1.4;3.6-dianhydro-L-iditol 2-nitrate], in series [4] (0.25 mg/kg i.v.), the blood pressure after was 41.25 ± 2.78 mm.Hg and the “blood pressure Δ” value is -5.75 mm.Hg. Further, in series [4] (0.25 mg/kg i.v., before administration), the blood pressure before is on record as 47.00 ± 3.39 mm.Hg. Besides, in series [4] (1.00 mg/kg i.v.), the blood pressure after is 33.75 ± 2.02 mm.Hg and the “blood pressure Δ” value is reported as -10.75 mm.Hg. For the same molecule, in series [4] (2.50 mg/kg i.v.), the blood pressure after turned out to be 25.75 ± 1.31 mm.Hg and the “blood pressure Δ” value is listed as -13.75 mm.Hg. Also, in series [3] (0.25 mg/kg i.v.), the blood pressure before is reported as 125.7 mm.Hg, the “dp/dt (inotropism) before” value was 8333 mm.Hg/sec, the heart frequency before worked out at 187.3 min⁻¹ and the “blood pressure WD” value is recorded as 3.0 min. Besides, in series [3] (0.25 mg/kg i.v.), the blood pressure after came to 121.7 mm.Hg, the “blood pressure Δ” value is on record as -4.0 mm.Hg, the “dp/dt (inotropism) after” value is reported as 7433 mm.Hg/sec and the “dp/dt (inotropism) Δ” value is -900 mm.Hg/sec. In series [3] (0.25 mg/kg i.v.), the “dp/dt WD” value is 3.7 min, the heart frequency after turned out to be 188.7 min⁻¹ and the “heart frequency Δ” value is reported as “+1.4 min^-1”. Besides, in series [3] (0.50 mg/kg i.v.), the “blood pressure WD” value turned out to be 5.7 min, the blood pressure after is 114.2 mm.Hg, the “blood pressure Δ” value was -11.3 mm.Hg and the “dp/dt (inotropism) after” value is on record as 7150 mm.Hg/sec. In addition, in series [3] (0.50 mg/kg i.v.), the “dp/dt (inotropism) Δ” value is -1417 mm.Hg/sec, the “dp/dt WD” value is 9.5 min, the heart frequency after was 196.0 min⁻¹ and the “heart frequency Δ” value is recorded as “+0.3 min^-1”. For the same molecule, in series [3] (1.00 mg/kg i.v.), the “blood pressure WD” value stood at 8.2 min, the blood pressure after was found to be 100.8 mm.Hg, the “blood pressure Δ” value is -24.3 mm.Hg and the “dp/dt (inotropism) after” value is listed as 5067 mm.Hg/sec. Moreover, in series [3] (1.00 mg/kg i.v.), the “dp/dt (inotropism) Δ” value was -2983 mm.Hg/sec, the “dp/dt WD” value is given as 10.9 min, the heart frequency after worked out at 187.0 min⁻¹ and the “heart frequency Δ” value is -5.0 min⁻¹. In series [3] (2.50 mg/kg i.v.), the “blood pressure WD” value was above 9.0 min, the blood pressure after was 79.5 mm.Hg, the “blood pressure Δ” value was -45.2 mm.Hg and the “dp/dt (inotropism) after” value is given as 2933 mm.Hg/sec. Besides, in series [3] (2.50 mg/kg i.v.), the “dp/dt (inotropism) Δ” value was -4500 mm.Hg/sec, the “dp/dt WD” value is on record as above 10 min, the heart frequency after was 171.7 min⁻¹ and the “heart frequency Δ” value is -20.3 min⁻¹.

(Values after US4363805A, “Aminodesoxy-1.4;3.6-dianhydrohexitol nitrates and pharmaceutical composition” (Firma Willmar Schwabe, priority 1980, dated 1982).)
